Results from patent US20030228299A1, “Use of antioxidant for treating and/or preventing surface ocular disorders” (priority 2003, published 2003).

Assays:
[1] = system: continuous-line conjunctival cells (Wong-Kilbourne derivative of Chang conjunctiva, clone 1-5C-4, ATCC CCL-20.2); assay: Apoptosis induced by benzalkonium chloride, percentage of cellular DNA in the sub-G1 phase by flux cytofluorimetry; format: cell-based
Description: The apoptosis induced by benzalkonium chloride was chosen as the model of superficial eye disorders treated and/or prevented by the invention.
This study of apoptosis is conducted using flux cytofluorimetry to compare the percentage of DNA in the sub-G1 phase obtained before and after treatment with the compounds of the invention.
In fact, apoptosis is characterized by a fragmentation of the DNA into identical fragments of 200 base pairs. The cells involved in this process therefore have a reduced DNA content.
This fragmentation of the DNA can be measured in situ by flux cytofluorimetry using the DNA stain propidium iodide. The reduced DNA appears with a lower fluorescence intensity than that of normal cells. […] The number of normal cells appears in the G1 peak zone. On the other hand, the cells which have a lower fluorescence intensity, i.e. those whose DNA has been fragmented, appear underneath this G1 peak, i.e. in what is called the sub-G1 peak located in the zone marked M1 in FIG. 1.
Apoptosis was induced by adding 0.001% by volume of benzalkonium chloride (BAC), based on the total volume of the sample, to DMEM (Dulbecco-modified Eagle's medium: reference 21885, Gibco BRL Products; enriched with 10% by volume of fetal calf serum, based on the total volume of the sample, and supplemented with […] of streptomycin and 50 IU/ml of penicillin) in which conjunctival cells are cultivated in 6-well plates.
In practice, the conjunctival cells were cultivated in the culture medium described above and, at 80% confluence, SOD, alpha-lipoic acid and mixtures thereof were added and incubation was carried out for 45 minutes at 37° C. Benzalkonium chloride was then added to each well. After 15 minutes of incubation, the supernatants in each well were collected in 15 ml tubes; the cells were detached by the action of 0.25% trypsin for 5 minutes at 37° C. and added to their respective supernatants. After centrifugation of the tubes, the cells were washed twice in phosphate buffer. The cellular residue was resuspended in phosphate buffer at a concentration of 1 million cells per milliliter.
One hundred microliters of this cellular suspension having a concentration of 10^6/ml were first fixed and permeabilized in one milliliter of absolute ethanol at −20° C. for one hour; then, after washing in phosphate buffer, the DNA was stained with propidium iodide (100 microliters at a concentration of 0.5 mg/ml) for one hour at 4° C. and subsequently analyzed on a cytofluorimeter (Epics XL-MCL, Beckman).
The percentage of sub-G1 peaks, i.e. the percentage of fragmented DNA, and consequently the number of conjunctival cells degraded by apoptosis, was measured.

[2] = after instillation into the eye (De Saint Jean et al. 1999); cited from earlier work
[3] = system: corneal and conjunctival cells of human origin, in culture; assay: Hydroethidine test of superoxide anion production; format: cell-based; details: different concentrations; cells exposed to various aggressors
Description: Corneal and conjunctival cells of human origin, in culture, exposed to various aggressors in order to induce the release of free radicals, are treated with the active compounds of the present invention (Cu/Zn SOD or alpha-lipoic acid) at different concentrations, or are left untreated.
Hydroethidine (Molecular Probes) is a fluorogenic probe which is oxidized to the ethidium cation in the presence of the superoxide anion. This probe becomes fluorescent when it binds to the superoxide anion (λexc.=490 nm−λem.=600 nm, I=6 V). The hydroethidine solution used is a 5 μM solution. The cell cultures are placed for 10 minutes in DMEM containing the probe, after which the cells are extracted in order to measure the production of superoxide anion. The measurement is made in 96-well microplates.
The analyses are thus performed on 5000 cells per well, each measurement being repeated six times. The results are expressed in fluorescence units. The mean fluorescence values are calculated in each group and compared by a Mann-Whitney non-parametric U-test.

[4] = system: corneal and/or conjunctival cells of human origin, in culture; assay: Dichlorofluorescein diacetate (DCFH-DA) test of free radicals (hydrogen peroxide); format: cell-based; details: different concentrations; cells exposed to environmental agents
Description: The tests are performed by cytofluorimetric microtitration in cold light. […] It combines the reproducibility of the microplate methods with the sensitivity of the cytometric methods and has a very broad detection spectrum (280-870 nm). The microplate is scanned by a pencil of light of a given wavelength which illuminates each culture well for less than 0.3 second, thereby limiting any probe extinction phenomenon.
Corneal and/or conjunctival cells of human origin, in culture, are exposed to various environmental agents in order to induce the release of free radicals. The active compounds of the invention (Cu/Zn SOD or alpha-lipoic acid) are tested at different concentrations on this model. The presence of free radicals in the culture medium is evaluated by the DCFH-DA test (Molecular Probes, Eugene, Oreg., USA) in fluorimetry (λexc.=490 nm−rem.=535 nm, I=4 V). The fluorogenic probe becomes fluorescent when it binds to hydrogen peroxide. The DCFH-DA solution used is a 20 μM solution in Dulbecco-modified minimum essential medium (DMEM). The cultures are then placed for 20 minutes in DMEM containing the probe, after which they are extracted in order to measure the production of hydrogen peroxide. The measurement is made directly on the cells in 96-well plates (Debbasch C. et al. 2000).

Compound	Percentage of sub-G1 peaks ([1]; BAC 0.001% alone in DMEM (reference, maximum apoptosis; DMEM control = 10)) [%]	Half-life [2] [h]	Production of superoxide anion and cellular degeneration associated with lipid peroxidation (hydroethidine test) [3]	Percentage of sub-G1 peaks ([1]; alpha-lipoic acid 0.5 μg/ml DMEM + BAC 0.001%) [%]	Percentage of sub-G1 peaks ([1]; alpha-lipoic acid 0.5 μg/ml in DMEM, no BAC (control)) [%]	Percentage of sub-G1 peaks ([1]; alpha-lipoic acid 5 μg/ml DMEM + BAC 0.001%) [%]	Percentage of sub-G1 peaks ([1]; alpha-lipoic acid 5 μg/ml in DMEM, no BAC (control)) [%]	Deleterious effects of free radicals on corneal and/or conjunctival cells (DCFH-DA test) [4]
benzalkonium chloride [BAC]	23	20	–	–	–	–	–	–
O=C(O)CCCCC1CCSS1 (racemic) [Alpha-lipoic acid, racemic alpha-lipoic acid]	–	–	significant dose-related reduction	8	7	13	7	significant dose-related decrease
